Results from the supplement of paper PMC4977894.
Structures can show the parent of a compound that is named as a salt. ± gives the standard deviation of the averaged measurements.

What was measured:
[1] = tested on: Homo sapiens (human subject panel, olfactory perception); test: perceived odor pleasantness rating (rating 0-100); higher = more pleasant
In short: (§1)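 Fifty-five healthy human subjects aged 18–50 took part, and the six lowest performers were excluded. Each molecule was diluted in paraffin oil at high and low concentrations, and 1 mL was sniffed in randomized order over ten visits of 100 stimuli each. Subjects who reported smelling a stimulus rated it on a computerized slider that started at 50 and had to be moved, with positions converted to a 0–100 scale. The familiarity, intensity and pleasantness values are averages across subjects.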

[2] = tested on: Homo sapiens (human subject panel, olfactory perception); test: perceived odor familiarity rating (rating 0-100); higher = more familiar
In short: as §1

[3] = tested on: Homo sapiens (human subject panel, olfactory perception); test: perceived odor intensity rating (rating 0-100); higher = stronger perceived smell
In short: as §1

[4] = odor dilution in paraffin oil: 1/10
[5] = odor dilution in paraffin oil: 1/1,000
[6] = odor dilution in paraffin oil: 1/100,000
[7] = odor dilution in paraffin oil: 1/10,000,000

| SMILES | perceived odor pleasantness rating [1, 4] | perceived odor pleasantness rating [1, 5] | perceived odor familiarity rating [2, 4] | perceived odor familiarity rating [2, 5] | perceived odor intensity rating [3, 4] | perceived odor intensity rating [3, 5] | perceived odor pleasantness rating [1, 6] | perceived odor familiarity rating [2, 6] | perceived odor intensity rating [3, 6] | perceived odor pleasantness rating [1, 7] | perceived odor familiarity rating [2, 7] | perceived odor intensity rating [3, 7] |
| --- | --- | --- | --- | --- | --- | --- | --- | --- | --- | --- | --- | --- |
| O=C1CCCC1 [Cyclopentanone] | 29.6 ± 25 | 36 ± 25 | 48.9 ± 34 | 33.1 ± 30 | 81.4 ± 23 | 52.3 ± 33 | – | – | – | – | – | – |
| CC12CCC(CC1=O)C2(C)C [D-Camphor] | 52.1 ± 30 | 52.3 ± 28 | 81 ± 26 | 68.5 ± 25 | 89.8 ± 17 | 63.8 ± 31 | – | – | – | – | – | – |
| C=C(C)[C@@H]1CC[C@@H](C)C(=O)C1 [D-Dihydrocarvone] | 39.5 ± 26 | 50.2 ± 23 | 52.5 ± 34 | 47.2 ± 28 | 81.9 ± 16 | 45.9 ± 29 | – | – | – | – | – | – |
| OC[C@@H](O)[C@@H](O)[C@H](O)[C@@H](O)CO [D-Sorbitol] | 29.8 ± 27 | 45 ± 28 | 55.1 ± 31 | 44.6 ± 31 | 73.4 ± 22 | 39 ± 33 | – | – | – | – | – | – |
| OC1CCC2CCCCC2C1 (stereo not given) [Decahydro-2-naphthol] | – | 49.9 ± 26 | – | 48.7 ± 29 | – | 54.8 ± 29 | 50.6 ± 24 | 36.3 ± 32 | 23.1 ± 27 | – | – | – |
| CCCCCCCCCC(OC)OC [Decanal dimethyl acetal] | 50.2 ± 29 | 53.6 ± 22 | 47.6 ± 34 | 41.2 ± 34 | 70.7 ± 25 | 29.7 ± 30 | – | – | – | – | – | – |
| CCSSCC [Diethyl disulfide] | – | 21.3 ± 27 | – | 52.5 ± 35 | – | 85.9 ± 16 | 28.4 ± 24 | 51.2 ± 32 | 60.6 ± 34 | – | – | – |
| CCOC(=O)CC(O)C(=O)OCC (stereo not given) [Diethyl malate] | – | 41.4 ± 24 | – | 35.8 ± 28 | – | 24.6 ± 25 | 55.2 ± 19 | 22.1 ± 26 | 12.6 ± 17 | – | – | – |
| CCOC(=O)CC(=O)OCC [Diethyl malonate] | – | 71.7 ± 17 | – | 64.3 ± 24 | – | 57.1 ± 27 | 61 ± 23 | 42.8 ± 28 | 27.4 ± 26 | – | – | – |
| CCOC(=O)CCCCCCCCC(=O)OCC [Diethyl sebacate] | 71.3 ± 21 | 55.5 ± 26 | 64.7 ± 28 | 31.3 ± 31 | 54.7 ± 27 | 21.4 ± 25 | – | – | – | – | – | – |
| CCSCC [Diethyl sulfide] | – | – | – | – | – | – | 24.2 ± 22 | 37.5 ± 27 | 62.5 ± 32 | 43.8 ± 23 | 42 ± 27 | 19.7 ± 27 |
| O=C1CCc2ccccc2O1 [Dihydrocoumarin] | – | 64.8 ± 23 | – | 59.7 ± 29 | – | 70.9 ± 19 | 64.6 ± 22 | 42.2 ± 30 | 35.5 ± 30 | – | – | – |
| CCCCCC1=C(C)CCC1=O [Dihydrojasmone] | – | 44.5 ± 26 | – | 48.1 ± 28 | – | 62.7 ± 28 | 48.5 ± 24 | 42.9 ± 29 | 44.3 ± 28 | – | – | – |
| CNc1ccccc1C(=O)OC [Dimethyl anthranilate] | – | 63.1 ± 23 | – | 53 ± 28 | – | 44.2 ± 31 | 53.3 ± 26 | 31.2 ± 29 | 17.1 ± 21 | – | – | – |
| CSSSC [Dimethyl trisulfide (replicate)] | – | – | – | – | – | – | 18.4 ± 22 | 59.2 ± 32 | 80.1 ± 22 | 26.5 ± 23 | 50.5 ± 33 | 62.9 ± 29 |
| CSSSC [Dimethyl trisulfide] | – | – | – | – | – | – | 22.3 ± 24 | 52.5 ± 34 | 77.6 ± 23 | 28.1 ± 25 | 49.1 ± 34 | 63 ± 28 |
| c1ccc(Oc2ccccc2)cc1 [Diphenyl ether] | – | 49.9 ± 26 | – | 40.4 ± 28 | – | 55.1 ± 29 | 46.5 ± 22 | 42.4 ± 29 | 27 ± 28 | – | – | – |
| CCOC(=O)c1ccco1 [Ethyl 2-furoate] | 32 ± 28 | 42.8 ± 24 | 47.9 ± 33 | 36.6 ± 29 | 87.4 ± 14 | 40.3 ± 34 | – | – | – | – | – | – |

| SMILES | perceived odor pleasantness rating [1, 4] | perceived odor pleasantness rating [1, 5] | perceived odor familiarity rating [2, 4] | perceived odor familiarity rating [2, 5] | perceived odor intensity rating [3, 4] | perceived odor intensity rating [3, 5] | perceived odor pleasantness rating [1, 6] | perceived odor familiarity rating [2, 6] | perceived odor intensity rating [3, 6] | perceived odor pleasantness rating [1, 7] | perceived odor familiarity rating [2, 7] | perceived odor intensity rating [3, 7] |
| --- | --- | --- | --- | --- | --- | --- | --- | --- | --- | --- | --- | --- |
| CCOC(=O)C(C)CC (stereo not given) [Ethyl 2-methylbutyrate] | – | 75.1 ± 24 | – | 69.6 ± 30 | – | 76.5 ± 18 | 77.9 ± 20 | 67.3 ± 25 | 55.4 ± 28 | – | – | – |
| CCCC(C)C(=O)OCC (stereo not given) [Ethyl 2-methylpentanoate (replicate)] | – | 72.2 ± 18 | – | 59.6 ± 31 | – | 52.1 ± 29 | 64.9 ± 20 | 52 ± 27 | 50.5 ± 29 | – | – | – |
| CCCC(C)C(=O)OCC (stereo not given) [Ethyl 2-methylpentanoate] | – | 76.8 ± 20 | – | 67.2 ± 24 | – | 67.9 ± 22 | 64.9 ± 21 | 50.8 ± 28 | 49.4 ± 24 | – | – | – |
| CCOC(=O)CCSCc1ccco1 [Ethyl 3-(furfurylthio)propionate] | – | – | – | – | – | – | 19.6 ± 22 | 50.2 ± 32 | 77.8 ± 18 | 32.3 ± 24 | 41.6 ± 32 | 58.7 ± 28 |
| CCOC(=O)C1OC1(C)c1ccccc1 (stereo not given) [Ethyl 3-methyl-3-phenylglycidate] | – | – | – | – | – | – | 59.9 ± 25 | 48 ± 30 | 48.2 ± 32 | 53.4 ± 23 | 28.4 ± 28 | 13.3 ± 28 |
| CCCCC(=O)OCC [Ethyl Valerate] | – | 71.4 ± 26 | – | 67.1 ± 33 | – | 75.2 ± 22 | 73.6 ± 20 | 58.9 ± 30 | 50.6 ± 28 | – | – | – |
| CCOc1cc(C=O)ccc1O [Ethyl Vanillin] | 84.3 ± 20 | 83.9 ± 17 | 79.8 ± 22 | 77.3 ± 26 | 75.3 ± 20 | 71 ± 26 | – | – | – | – | – | – |
| CCOC(=O)c1ccccc1 [Ethyl benzoate] | – | 57.1 ± 25 | – | 50.5 ± 32 | – | 66.2 ± 24 | 58.6 ± 24 | 43.1 ± 30 | 38.4 ± 33 | – | – | – |
| CCCCCCCCCC(=O)OCC [Ethyl decanoate] | 58.2 ± 26 | 49.6 ± 24 | 50.9 ± 30 | 38.9 ± 27 | 59.8 ± 30 | 21.2 ± 24 | – | – | – | – | – | – |
| CCOC=O [Ethyl formate] | 36 ± 26 | 48.2 ± 22 | 43.9 ± 32 | 24.9 ± 20 | 51.6 ± 35 | 16.5 ± 26 | – | – | – | – | – | – |
| CCCCCCC(=O)OCC [Ethyl heptanoate] | – | 62.6 ± 26 | – | 59.4 ± 27 | – | 69.1 ± 23 | 55.9 ± 25 | 44.3 ± 29 | 34.8 ± 28 | – | – | – |
| CCCCCCCCCCCCCC(=O)OCC [Ethyl myristate] | 50.6 ± 26 | 42.8 ± 25 | 40.5 ± 27 | 38.1 ± 33 | 39.1 ± 28 | 20.7 ± 24 | – | – | – | – | – | – |
| CCCCCCCC(=O)OCC [Ethyl octanoate] | – | 66.2 ± 22 | – | 52.7 ± 33 | – | 54.7 ± 29 | 61.9 ± 22 | 52 ± 29 | 46.7 ± 31 | – | – | – |
| C/C=C/C=C/C(=O)OCC [Ethyl sorbate] | – | 35.3 ± 26 | – | 53.1 ± 29 | – | 75.4 ± 17 | 54.8 ± 20 | 41.5 ± 30 | 26.1 ± 27 | – | – | – |
| CCCCCCCCCCCCCCCCCC(=O)OCC [Ethyl stearate] | 45.7 ± 25 | 43.4 ± 15 | 38.3 ± 34 | 33.1 ± 24 | 46.8 ± 33 | 17 ± 17 | – | – | – | – | – | – |
| CCCCCCCCCCC(=O)OCC [Ethyl undecanoate] | 52.8 ± 26 | 50.1 ± 28 | 49.9 ± 34 | 46.8 ± 28 | 69.9 ± 21 | 38.8 ± 28 | – | – | – | – | – | – |
| C=CCc1ccc(OC(C)=O)c(OC)c1 [Eugenyl Acetate] | – | 63.9 ± 23 | – | 61.4 ± 28 | – | 52.3 ± 30 | 58 ± 25 | 37.7 ± 30 | 21.1 ± 28 | – | – | – |
